Results from patent US20240246946A1, “MODULATORS OF TREX1” (Constellation Pharmaceuticals, Inc., priority 2021, published 2024).

How the values were obtained:
full length mouse TREX1 = target: T1, full length mouse TREX1 (Mus musculus, UniProt Q91XB0); test: mTREX1 Biochemical Assay (fluorescence, dsDNA substrate degradation); conditions: biochemical, read-out: mTREX1 IC50
T1 construct: N-terminally His-Tev tagged full length mouse TREX1; made in house; host or cells: E. coli
T1 sequence (Q91XB0 1-314): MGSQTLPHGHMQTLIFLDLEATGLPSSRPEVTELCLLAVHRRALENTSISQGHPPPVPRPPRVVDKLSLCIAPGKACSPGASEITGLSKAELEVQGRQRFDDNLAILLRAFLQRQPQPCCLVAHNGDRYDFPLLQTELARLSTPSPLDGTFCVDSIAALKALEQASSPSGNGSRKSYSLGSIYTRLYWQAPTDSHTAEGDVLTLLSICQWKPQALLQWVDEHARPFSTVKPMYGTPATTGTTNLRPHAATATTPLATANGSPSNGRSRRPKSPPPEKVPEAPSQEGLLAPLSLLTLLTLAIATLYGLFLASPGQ
Outline: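 Reaction run 18 h at 25° C. with 60 nM TEX615/quencher-labelled dsDNA and 6 pM mouse TREX1 in Tris buffer (pH 7.4, 5 mM MgCl2, 1.0% DMSO), enzyme having sat 4 h with compound across 10 concentrations. EDTA quench; substrate degradation measured as fluorescence increase.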

full length human TREX1 = target: T2, full length human TREX1 (Homo sapiens, UniProt Q9NSU2); test: TREX1 Kinetics Assays (TR-FRET association and dissociation, global fit with Kintek Explorer); assay type: binding; conditions: for Kd / residence time: hTREX1, TR-FRET kinetics; for koff / kon: hTREX1, TR-FRET, 25° C., global fit
T2 construct: N-terminally His-Tev tagged full length human TREX1; made in house; host or cells: E. coli
T2 sequence (Q9NSU2 1-314): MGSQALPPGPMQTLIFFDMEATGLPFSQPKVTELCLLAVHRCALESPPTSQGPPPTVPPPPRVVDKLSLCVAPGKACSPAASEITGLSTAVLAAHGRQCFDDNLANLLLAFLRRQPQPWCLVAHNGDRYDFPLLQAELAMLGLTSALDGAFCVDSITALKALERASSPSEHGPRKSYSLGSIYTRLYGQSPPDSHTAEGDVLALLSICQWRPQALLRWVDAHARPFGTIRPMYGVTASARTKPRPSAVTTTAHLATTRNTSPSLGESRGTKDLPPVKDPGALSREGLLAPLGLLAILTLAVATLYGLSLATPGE
Protocol: Compound binding kinetics were assessed using a pair of TR-FRET assays which measure the proportion of protein bound to a biotinylated TREX1 inhibitor (“probe”).
N-terminally His-Tev tagged full length human TREX1 (expressed in E. coli and purified in house), complexed with Eu-W1024-anti-6×His (“Eu”; PerkinElmer) in reaction buffer (50 mM Tris, 150 mM NaCl, 2 mM DTT, 0.1 mg/mL BSA, 0.01% (w/v) Tween-20, 5 mM MgCl2, pH 7.4) was combined with an equal volume of test compound in reaction buffer and incubated at 25° C. Concentrations at this stage were 1 nM TREX1/Eu complex, and four concentrations of compound (diluted from 10 mM stocks in 100% DMSO). At defined time points, 18 μL of this mixture was withdrawn and combined with 2 μL probe to a final concentration of 1 μM probe. After incubating for 30 seconds, 18 μL was withdrawn and combined with 2 μL streptavidin-allophycocyanin (“SA-APC”; PerkinElmer) to a final concentration of 1.5 μM SA-APC. Fifteen μL of this mixture was then immediately transferred to a 384-well Black ProxiPlate Plus (PerkinElmer) and read in an EnVision plate reader (PerkinElmer) measuring fluorescence at 615 nm and 665 nm following excitation w/337 nm laser light. Final concentrations were 0.8 nM TREX1/Eu complex, 0.9 μM probe, and 1.5 μM SA-APC.
N-terminally His-Tev tagged full length human TREX1 (expressed in E. coli and purified in house), complexed with Eu-W1024-anti-6×His (“Eu”; PerkinElmer) in reaction buffer (50 mM Tris, 150 mM NaCl, 2 mM DTT, 0.1 mg/mL BSA, 0.01% (w/v) Tween-20, 5 mM MgCl2, pH 7.4) was combined with an equal volume of test compound in reaction buffer. Concentrations at this stage were 100 nM TREX1/Eu complex and 100 nM test compound (diluted from 10 mM stocks in 100% DMSO). Following an equilibration period of at least an hour at 25° C., this mixture was diluted 100-fold into reaction buffer containing 1 μM probe, and incubated at 25° C. At defined time points, 36 μL of the reaction mixture was withdrawn and combined with 4 μL streptavidin-allophycocyanin (“SA-APC”; PerkinElmer) to a final concentration of 1.5 μM SA-APC. Fifteen μL of this mixture was then immediately transferred to duplicate wells of a 384-well Black ProxiPlate Plus (PerkinElmer) and read in an EnVision plate reader (PerkinElmer) measuring fluorescence at 615 nm and 665 nm following excitation w/337 nm laser light.
The TR-FRET signal, a ratio of 665 nm/615 nm emitted light, was converted to fraction enzyme bound to test compound by normalizing to low signal (no enzyme or test compound) and high signal (no test compound) controls. Data from both association and dissociation experiments were fitted globally using Kintek Explorer software, which computes the rate constants directly.

| SMILES | IC50 (full length mouse TREX1) [nM] | Kd (full length human TREX1) [nM] | residence time (full length human TREX1) [min] | koff (full length human TREX1) [s⁻¹] | kon (full length human TREX1) [M⁻¹ s⁻¹] |
| --- | --- | --- | --- | --- | --- |
| CC(c1nc(C(=O)Nc2cnoc2)c(O)c(=O)n1C)C(c1cnn(C)c1)c1ccccc1C#N (single isomer, unassigned) [Example 2 D1E1] | 1 to 10 | 0.231 | 368 | 4.53e-05 | 197000 |
| CC(c1nc(C(=O)Nc2cnoc2)c(O)c(=O)n1C)C(c1ccccc1C#N)c1cn(C)nc1C#N (single isomer, unassigned) [Example 10 D1E1] | < 1 | 0.036 | 613 | 2.72e-05 | 757000 |
| CCn1cc(C(c2ccccc2C#N)C(C)c2nc(C(=O)Nc3cnoc3)c(O)c(=O)n2C)cn1 (single isomer, unassigned) [Example 13 D1E1] | < 1 | 0.209 | 370 | 4.5e-05 | 215000 |
| CC(c1nc(C(=O)Nc2cnoc2)c(O)c(=O)n1C)C(c1cnn(C)c1)c1cc(F)ccc1C#N (single isomer, unassigned) [Example 14 D1E2] | 1 to 10 | 0.245 | 310 | 5.38e-05 | 220000 |
| CCn1cc(C(c2ccc(F)cc2C#N)C(C)c2nc(C(=O)Nc3cnoc3)c(O)c(=O)n2C)cn1 (single isomer, unassigned) [Example 16 D1E1] | < 1 | 0.245 | 461 | 3.62e-05 | 147000 |
| CCn1cc(C(c2cc(F)ccc2C#N)C(C)c2nc(C(=O)Nc3cnoc3)c(O)c(=O)n2C)cn1 (single isomer, unassigned) [Example 17 D1E2] | < 1 | 0.28 | 353 | 4.72e-05 | 168000 |
| CC(c1nc(C(=O)Nc2cnoc2)c(O)c(=O)n1C)C(c1cnn(CC(F)(F)F)c1)c1ccccc1C#N (single isomer, unassigned) [Example 22 D1E1] | 1 to 10 | 0.614 | 256 | 6.5e-05 | 106000 |
| CC(c1nc(C(=O)Nc2cnoc2)c(O)c(=O)n1C)C(c1cnn(CC2CC2)c1)c1ccccc1C#N (single isomer, unassigned) [Example 23 D1E2] | 1 to 10 | 0.529 | 290 | 5.73e-05 | 108000 |
| CC(c1nc(C(=O)Nc2cnoc2)c(O)c(=O)n1C)C(c1cnn(C)c1)c1cc(Cl)ccc1C#N (single isomer, unassigned) [Example 26 D1E2] | 1 to 10 | 0.405 | 269 | 6.2e-05 | 153000 |
| CC(c1nc(C(=O)Nc2cnoc2)c(O)c(=O)n1C)C(c1cnn(C(F)F)c1)c1ccccc1C#N (single isomer, unassigned) [Example 38 D1E1] | < 1 | 0.351 | 290 | 5.73e-05 | 163000 |
| Cc1cncc(C(c2ccccc2C#N)C(C)c2nc(C(=O)Nc3cnoc3)c(O)c(=O)n2C)n1 (single isomer, unassigned) [Example 53 D1E2] | 1 to 10 | 0.255 | 483 | 3.45e-05 | 135000 |
| Cc1nn(C)cc1C(c1cc(F)ccc1C#N)C(C)c1nc(C(=O)Nc2cnoc2)c(O)c(=O)n1C (single isomer, unassigned) [Example 57 D1E2] | 1 to 10 |  | 431 | 3.87e-05 |  |
| CC(c1nc(C(=O)Nc2cnoc2)c(O)c(=O)n1C)C(c1cnn(C)c1)c1ccccc1Cl (single isomer, unassigned) [Example 77 D1E1] | 1 to 10 | 0.338 | 215 | 7.77e-05 | 230000 |
| Cc1nn(C)c(C)c1C(c1ccccc1C#N)C(C)c1nc(C(=O)Nc2cnoc2)c(O)c(=O)n1C (single isomer, unassigned) [Example 78 D1E1] | 1 to 10 |  | 413 | 4.03e-05 |  |
| Cc1ncc(C(c2ccccc2C#N)C(C)c2nc(C(=O)Nc3cnoc3)c(O)c(=O)n2C)nc1C (single isomer, unassigned) [Example 81 D1E2] | 1 to 10 |  | 714 | 2.33e-05 |  |
| CC(c1nc(C(=O)Nc2cnoc2)c(O)c(=O)n1C)C(c1ccccc1C#N)c1cn(C)nc1F (single isomer, unassigned) [Example 91 D1E1] | < 1 |  | 1820 | 9.17e-06 |  |
| CC(c1nc(C(=O)Nc2cnoc2)c(O)c(=O)n1C)C(c1cnn(C(C)C)c1)c1ccccc1C#N (single isomer, unassigned) [Example 105 D1E2] | 1 to 10 |  | 662 | 2.52e-05 |  |
| Cc1cc(C(c2cc(F)ccc2C#N)C(C)c2nc(C(=O)Nc3cnoc3)c(O)c(=O)n2C)n(C)n1 (single isomer, unassigned) [Example 111 D1E2] | 1 to 10 |  | 461 | 3.62e-05 |  |
| Cc1cnc(C(c2cc(F)ccc2C#N)C(C)c2nc(C(=O)Nc3cnoc3)c(O)c(=O)n2C)cn1 (single isomer, unassigned) [Example 115 D1E2] | 1 to 10 |  | 515 | 3.23e-05 |  |
| Cc1nc(C)c(C(c2ccccc2C#N)C(C)c2nc(C(=O)Nc3cnoc3)c(O)c(=O)n2C)nc1C (single isomer, unassigned) [Example 122 D1E1] | < 1 |  | 1450 | 1.15e-05 |  |
| Cc1ncc(C(c2cc(F)ccc2C#N)C(C)c2nc(C(=O)Nc3cnoc3)c(O)c(=O)n2C)nc1C (single isomer, unassigned) [Example 124 D1E2] | 1 to 10 |  | 741 | 2.25e-05 |  |
| Cc1ncc(C(c2ccccc2Cl)C(C)c2nc(C(=O)Nc3cnoc3)c(O)c(=O)n2C)nc1C (single isomer, unassigned) [Example 125 D1E2] | 1 to 10 |  | 543 | 3.07e-05 |  |
| CCn1c(C(C)C(c2cnn(C)c2)c2ccccc2C#N)nc(C(=O)Nc2cnoc2)c(O)c1=O (single isomer, unassigned) [Example 149 D1E2] | 1 to 10 |  | 505 | 3.3e-05 |  |
| C[C@H](c1nc(C(=O)Nc2cnoc2)c(O)c(=O)n1C)[C@@H](c1cc(F)ccc1C#N)c1cn(C)nc1C#N [Example 59 D1E2] | < 1 |  | 515 | 3.23e-05 |  |
